# Reference: US10894038B2, “Indolizine derivatives, composition and methods of use” (Shanghai Fochon Pharmaceutical Co., Ltd., priority 2015, dated 2021)
# Assays:
# URAT1 [1] = target: T1, URAT1 (Homo sapiens (Human), UniProt Q96S37); assay: URAT1 in vitro inhibition activity, Method A (14C-uric acid uptake in HEK293-URAT-4 cells); type: cell-based; conditions: 50 μM 14C-uric acid, 10 min uptake
# Procedure: The potency of the compounds of formula (I) as inhibitors of the URAT1 was determined as follow.
# Cell Lines were generated in WuXi AppTec (HEK293-URAT-4: Stable cell line of HEK293 which was transfected with pcDNA3.1-URAT (Human SLC22A12 cDNA Clone, Abgent-DC07943). HEK293-PCDNA-5: Negative control cell of HEK293 which was transfected with pcDNA3.1 empty vector.
# Cells were seeded onto 24-well plates at the density of 2.0×10^5 cells per well. The cells were incubated at 37° C., 5% CO2 overnight. After approximately 24 hours culture, cells were used for uptake experiments. The culture medium were removed from the wells and the cells were incubated in 0.4 ml/well of Hank's balanced salt solution (HBSS) for 10 min. HBSS was replaced with 0.18 ml/well fresh HBSS. Compounds were 5 folds serial diluted in DMSO, and then 25 folds diluted in HBSS. Compounds diluted with HBSS (10 μl) were added to relevant well of cell plates, and plates were incubated at 37° C., 5% CO2 for 15 min. The final concentration of DMSO in the assay was 0.2%. 10 μl HBSS containing radioactively labeled Urate (^14C-uric acid) was added to each well. The final concentration of ^14C-uric acid in the assay medium was 50 μM. After 10 min, the assay medium was immediately removed. The cells were washed quickly with 0.5 ml pre-chilled HBSS twice. 0.1 M NaOH (0.4 ml) was added to lyse the cells for at least 20 min. The cell lysate was collected to a scintillation vial, and scintillant (4 ml) was added and the radioactivity was counted by a liquid scintillation counter. Inhibiton % data were calculated using the formula
# [formula] CPD: Signal from a well containing a test compound HC (high control): Average of signals from HEK293-URAT-4 cells LC (low control): Average of signals from HEK293-PCDNA-5.
# Target sequence in this assay (Q96S37 whole entry): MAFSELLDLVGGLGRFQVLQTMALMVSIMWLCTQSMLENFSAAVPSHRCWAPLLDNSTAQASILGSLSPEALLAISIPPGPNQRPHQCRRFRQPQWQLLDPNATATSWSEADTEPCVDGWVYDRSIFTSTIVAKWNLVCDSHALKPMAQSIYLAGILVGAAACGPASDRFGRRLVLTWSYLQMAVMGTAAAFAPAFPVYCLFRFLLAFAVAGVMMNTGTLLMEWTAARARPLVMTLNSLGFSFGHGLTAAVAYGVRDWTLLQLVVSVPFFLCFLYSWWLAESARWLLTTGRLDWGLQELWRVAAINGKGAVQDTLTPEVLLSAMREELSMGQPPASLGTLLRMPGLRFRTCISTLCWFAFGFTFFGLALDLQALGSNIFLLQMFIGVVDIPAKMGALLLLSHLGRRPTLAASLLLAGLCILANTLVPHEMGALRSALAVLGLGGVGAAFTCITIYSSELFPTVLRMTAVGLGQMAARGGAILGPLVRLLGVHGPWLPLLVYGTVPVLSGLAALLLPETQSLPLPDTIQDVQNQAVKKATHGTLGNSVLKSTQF
# URAT1 [2] = target: T1, URAT1; assay: URAT1 in vitro inhibition activity, Method B (14C-uric acid uptake in HEK293-URAT1 cells); type: cell-based; conditions: 5.0 μmol/L 14C-uric acid, 2 min uptake
# Procedure: HEK293-URAT1 cell Lines were donated by Japan Fuji Biomedical Research Institute. Negative control cell of HEK293 (MOCK cells) which was transfected with pcDNA3.1 empty vector. HEK293-URAT1 cell lines and MOCK cell lines were cultured in complete growth medium consisting of DMEM supplemented with 10% FBS, penicillin and streptomycin.
# Preparation of working solution: Each stock solutions was diluted to different concentrations (6, 20, 60, 200 and 600 μmol/L) with DMSO as 200× working solution, which was then diluted to 2×compound working solution with HBSS (Cl^− free) buffer. Radiolabeled substrate ^14C-Uric acid solution was diluted with HBSS (Cl^− free) buffer to obtain 2× working solution which was mixed with an equal volume of 2× compound working solution to obtain the mixture of radiolabeled substrate and compound working solution.
# HER293-URAT1 and MOCK cells were seeded onto 24-well plates at the density of 1.5×10^6 cells per well. The cells were incubated at 37° C., 5% CO2 overnight. After cultured for approximately 2 to 3 days, cells were used for the experiments. The culture medium were removed from the wells, and cells were washed with HBSS (Cl^− free) and incubated in 37° C. HBSS (Cl^− free) for 10 min. HBSS was replaced with 500 μL of the mixture of radiolabeled substrate and compound working solution. The final concentration of ^14C-Uric acid in the assay was 5.0 μmol/L. Plates were incubated at 37° C., 5% CO2 for 2 min, and the reaction was stopped by the addition of pre-chilled HBSS (Cl^− free) by washing three times. 400 μL NaOH ([…]) was added to lyse the cells and the cell lysate was collected to scintillation vials, and 3 ml scintillant (Aquasol-2, PerkinElmer) was added and after mixing completely, the radioactivity was counted by Tri-Carb 2910TR liquid scintillation counter. Each concentration of compounds, positive control and negative control were repeated in two wells (n=2). Inhibition % data were calculated using the formula: Inhibition=[100×(U−U0)/(Uc−U0)]%, and analyzed using Prism5 software.
# U0: Average of signals of MOCK cells;
# Uc: Average of signals of radiolabeled substrate. The half inhibition concentration of the tested compounds to URAT1 were analyzed using Prism 5 software.
# Target sequence in this assay (Q96S37 whole entry, species assumed): as the sequence (Q96S37 whole entry) above
# [3] = test system: potassium oxonate-induced hyperuricemia in rats; assay: Effect on potassium oxonate-induced hyperuricemia in rats (serum uric acid); type: in vivo, rat; conditions: male SD rats, 5 mg/kg oral; for serum uric acid levels, time after dosing 0.5 h: 0.5 h after dosing; for serum uric acid levels, time after dosing 1 h: 1 h after dosing; for serum uric acid levels, time after dosing 2 h: 2 h after dosing; for serum uric acid levels, time after dosing 3 h: 3 h after dosing; for serum uric acid levels, time after dosing 4 h: 4 h after dosing
# Procedure: Healthy male SD rats, weighing 250±20 g, were used. In the experiment, except for 10 rats as normal control group were orally administered with distilled water, the others were orally administered with yeast extract (20 g/kg, qd×5 days). One hour after last administration, all the rats were intraperitoneal injection with 250 mg/kg potassium oxonate while normal control group was treated with an equal volume of 0.5% CMC-Na (injection volume of 2 ml/kg). After one hour, rats were anesthetized with isoflurane and the serum uric acid was determined by uric acid test strip. All the rats were divided into groups by uric acid. The model control group and experimental groups was given orally administration 0.5% CMC-Na or compounds with a dose of 10 ml/kg-bw. Phosphotungstic acid precipitation method was used to detect serum uric acids in inner canthus blood at 0.5, 1, 2, 3, 4 h after administration, respectively. Substantially, observing the effects of compounds on serum uric acids levels and calculating each of groups' AUC and the inhibition of uric acid increased area by the equation as follows: […]
# As shown in the equation, AUC0 indicated the AUC of model control group, AUC1 indicated the AUC of therapy group, AUC2 indicated the AUC of normal control group.
Structure (SMILES),IC50 (URAT1 [1]) [µM],IC50 (URAT1 [2]) [µM],"serum uric acid levels, time after dosing 0.5 h [3] [µmol/L]","serum uric acid levels, time after dosing 1 h [3] [µmol/L]","serum uric acid levels, time after dosing 2 h [3] [µmol/L]","serum uric acid levels, time after dosing 3 h [3] [µmol/L]","serum uric acid levels, time after dosing 4 h [3] [µmol/L]"
"Cc1cc2c(C#N)ccc(-c3cnccc3SC3(C(=O)O)CCC3)n2c1 [Example 5, 1-((3-(8-cyano-2-methylindolizin-5-yl)pyridin-4-yl)thio)cyclobutane-1-carboxylic acid]",0.11,–,–,–,–,–,–
"CC(C)(Sc1ccncc1-c1ccc(C#N)c2c(Cl)ccn12)C(=O)O [Example 4, 2-((3-(1-chloro-8-cyanoindolizin-5-yl)pyridin-4-yl)thio)-2-methylpropanoic acid]",0.068,–,–,–,–,–,–
"N#Cc1ccc(-c2cnccc2SC2(C(=O)O)CCC2)c2cc(F)cn12 [Example 12, 1-((3-(5-cyano-2-fluoroindolizin-8-yl)pyridin-4-yl)thio)cyclobutane-1-carboxylic acid]",–,0.271,–,–,–,–,–
"N#Cc1cc2c(C#N)ccc(-c3cnccc3SC3(C(=O)O)CCC3)n2c1 [Example 17, 1-((3-(2,8-dicyanoindolizin-5-yl)pyridin-4-yl)thio)cyclobutane-1-carboxylic acid]",–,0.045,454.4 ± 39.8,458.1 ± 66.7,432.2 ± 67.6,403.0 ± 70.0,340.1 ± 56.0
"N#Cc1ccc(-c2cnccc2SC2(C(=O)O)CCC2)n2cc(Cl)cc12 [Example 13, 1-((3-(2-Chloro-8-cyanoindolizin-5-yl)pyridin-4-yl)thio)cyclobutane-1-carboxylic acid]",–,0.026,487.2 ± 46.9,523.6 ± 50.4,422.0 ± 54.1,341.4 ± 69.4,295.5 ± 47.2
"N#Cc1ccc(-c2cnccc2SC2(C(=O)O)CCC2)n2c(Cl)ccc12 [Example 23, 1-((3-(3-chloro-8-cyanoindolizin-5-yl)pyridin-4-yl)thio)cyclobutane-1-carboxylic acid]",–,0.089,–,–,–,–,–
"CS(=O)(=O)c1cc2c(C#N)ccc(-c3cnccc3SC3(C(=O)O)CCC3)n2c1 [Example 19, 1-((3-(8-cyano-2-(methylsulfonyl)indolizin-5-yl)pyridin-4-yl)thio)cyclobutane-1-carboxylic acid]",–,0.332,–,–,–,–,–
"CC(C)(Sc1ccncc1-c1ccc(C#N)c2cc(Br)cn12)C(=O)O [Example 16, 2-((3-(2-bromo-8-cyanoindolizin-5-yl)pyridin-4-yl)thio)-2-methylpropanoic acid]",–,–,460.6 ± 46.5,491.9 ± 77.4,380.6 ± 47.4,293.9 ± 42.1,264.7 ± 38.8
"CC(C)(Sc1ccncc1-c1ccc(C#N)c2ccc(Cl)n12)C(=O)O [Example 3, 2-((3-(3-chloro-8-cyanoindolizin-5-yl)pyridin-4-yl)thio)-2-methylpropanoic acid]",0.282,–,–,–,–,–,–
"N#Cc1ccc(-c2cnccc2SC2(C(=O)O)CCC2)c2cccn12 [Example 8, 1-((3-(5-cyanoindolizin-8-yl)pyridin-4-yl)thio)cyclobutane-1-carboxylic acid]",–,0.055,449.8 ± 39.8,483.9 ± 62.9,451.2 ± 58.9,393.9 ± 68.6,358.3 ± 68.2
"N#Cc1ccc(-c2cnccc2SC2(C(=O)O)CCC2)n2cc(Br)cc12 [Example 15, 1-((3-(2-bromo-8-cyanoindolizin-5-yl)pyridin-4-yl)thio)cyclobutane-1-carboxylic acid]",–,0.029,476.8 ± 61.7,496.3 ± 74.8,401.7 ± 52.9,331.3 ± 70.5,278.0 ± 46.0
"N#Cc1ccc(-c2cnccc2SC2(C(=O)O)CCC2)c2ccc(Cl)n12 [Example 10, 1-((3-(3-chloro-5-cyanoindolizin-8-yl)pyridin-4-yl)thio)cyclobutane-1-carboxylic acid]",–,0.424,–,–,–,–,–
"N#Cc1ccc(-c2cnccc2SC2(C(=O)O)CCC2)n2c(F)ccc12 [Example 20, 1-((3-(8-Cyano-3-fluoroindolizin-5-yl)pyridin-4-yl)thio)cyclobutane-1-carboxylic acid]",–,0.034,–,–,–,–,–
"CC(C)(Sc1ccncc1-c1ccc(C#N)n2cccc12)C(=O)O [Example 9, 2-((3-(5-cyanoindolizin-8-yl)pyridin-4-yl)thio)-2-methylpropanoic acid]",–,–,432.1 ± 43.2,450.8 ± 40.9,385.5 ± 52.2,347.1 ± 46.8,336.3 ± 59.1
"COCC(C)(Sc1ccncc1-c1ccc(C#N)c2cccn12)C(=O)O (stereo not drawn) [Example 31, 2-((3-(8-cyanoindolizin-5-yl)pyridin-4-yl)thio)-3-methoxy-2-methylpropanoic acid]",–,0.504,–,–,–,–,–
"CC(C)(Sc1ccncc1-c1ccc(C#N)c2cc(Cl)cn12)C(=O)O [Example 14, 2-((3-(2-chloro-8-cyanoindolizin-5-yl)pyridin-4-yl)thio)-2-methylpropanoic acid]",–,0.03,476.3 ± 53.4,489.5 ± 83.1,385.8 ± 68.2,337.2 ± 72.4,285.4 ± 47.7
"N#Cc1ccc(-c2cnccc2SC2(C(=O)O)CCC2)n2ccc(F)c12 [Example 21, 1-((3-(8-cyano-1-fluoroindolizin-5-yl)pyridin-4-yl)thio)cyclobutane-1-carboxylic acid]",–,0.085,–,–,–,–,–
"N#Cc1ccc(-c2cnccc2SC2(C(=O)O)CCC2)c2cc(Cl)cn12 [Example 11, 1-((3-(2-chloro-5-cyanoindolizin-8-yl)pyridin-4-yl)thio)cyclobutane-1-carboxylic acid]",–,0.828,–,–,–,–,–
